Source: patent EP1690531A2, “Dosage form and method for administering drug” (ALZA CORPORATION, priority 1996, dated 1998)

Columns and labels:
[1] = Clinical study of methylphenidate delivery profiles in school children (SKAMP, CLAM, mathematics test, activity monitor); assay type: in vivo, human; conditions: 36 school children
Experimental: (§1) The CLAM Test is a behavior rating that indicates social conformity or rebellion as developed by Conners, Lonez, and Milch and SKAMP is a rating that also measures behavior as developed by Swanson and reported in Psychopharmacological Bulletin, Vol. 21, pp. 887-890 (1985).
(§2) The effect measurements in this study were: (1) observer ratings on SKAMP scale (during classroom time) and (2) performance on the computerized mathematics test. Each child was tested on the mathematics test before the study began, and based on this pre-test during the study, a mathematics test appropriate for each child's ability was given. The morning and evening parent CLAM assessments were used to identify unusual behaviors. The evening parent CLAM was used to determine the presence of treatment effects in the evening hours, particularly treatment effects on the time the child fell asleep, and whether the child's sleep was interrupted. All of the children also wore an activity monitor (Actigraph) which records the movements of the child throughout the day. The activity (number of movements per minute) is recorded electronically and modeled as a function of the drug effect.
The immediate release tablet and the sustained-release dosage form were compared to a sustained-release dosage form that administered methylphenidate in an ascending profile. The sustained-release ascending profile corresponds to administering 4.2 mg at zero hour, 1.1 mg at 1.5 hours, 1.1 mg at 2 hours, 1.2 mg at 2.5 hours, 1.2 mg at 3.0 hours, 1.3 mg at 3.5 hours, 1.3 mg at 4 hours, 1.5 mg at 4.5 hours, 1.5 mg at 5 hours, 1.8 mg at 5.5 hours, 1.8 mg at 6 hours, and 2.0 mg at 6.5 hours, to produce the sustained-ascending release dotted line profile seen in Figure 2.
The accompanying figures present the results of the above-described study. […]

[2] = Clinical study of sustained-ascending versus three-times-a-day immediate release methylphenidate (behavior, combined attention); assay type: in vivo, human
Experimental: as §1, §2
The results of a clinical study that comprises administering methylphenidate according to two distinct delivery programs are reported in this example. In the study, a sustained-ascending profile corresponds to administering methylphenidate as follows: 8 mg at zero hours, 1.4 mg at 1.5 hours, 1.4 mg at 2.0 hours, 1.7 mg at 2.5 hours, 1.7 mg at 3.0 hours, 2.0 mg at 3.5 hours, 2.0 mg at 4.0 hours, 2.2 mg at 4.5 hours, 2.2 mg at 5.0 hours, 2.2 mg at 5.5 hours, 2.2 mg at 6.0 hours, 2.4 mg at 6.5 hours, 2.4 mg at 7.0 hours, 2.6 mg at 7.5 hours, and 1.9 mg at 8.0 hours. The methylphenidate was administered in overcoated capsules comprising a total of 36 mg of methylphenidate with 22% in the exterior overcoat. The ascending dose was administered with the first dose at 0730 followed by ascending doses every 30 minutes until 1530 to produce the intended ascending plasma concentration. […]

With `COC(=O)C(c1ccccc1)C1CCCCN1` (stereo not drawn) [methylphenidate] the “therapeutic effect and tolerance” value ([1]; controlled-sustained ascending profile (4.2 mg at zero hour rising to 2.0 mg at 6.5 hours)) was “the desired therapeutic effect without tolerance”, the “clinical effect (activity, mathematical scores, inappropriate behavior)” value ([1]; sustained-nonascending dose, 20 mg methylphenidate (8.3 mg at zero hour then 0.9 mg every 0.5 h to 7.5 hours)) was “a decrease in activity, higher mathematical scores and a lessening of inappropriate behavior” and the acute tolerance ([1]; sustained-nonascending dose, 20 mg methylphenidate) was “development of acute tolerance”. The “behavior, acquired tolerance” value ([2]; sustained ascending program, 36 mg total, 0730 to 1530, 32 children with attention deficient hyperactivity disorder, Figure 7) was “absence of acquired tolerance”, the “combined attention parameter, developed tolerance” value ([2]; sustained-ascending release, 36 mg total, 32 children, Figure 8) was “essentially free of developed tolerance” and the “combined attention parameter, acquired tolerance” value ([2]; three daily immediate release, 10 mg at 0730, 1130 and 1530, 32 children, Figure 8) was “with acquired tolerance”.
